This experiment has as its system Bordetella pertussis. Briefly: microbe, parasite or virus in culture. The class given is cell-based. Here is the method: Cells were harvested by centrifugation, washed twice with NaCl 0.9% (w/v), and resuspended in fresh medium (de novo minimal CDM; see composition in Table 1) at a theoretical OD650 nm of 0.5, as calculated from the OD650 nm of the culture before harvest. 20 μl of this cell suspension were used to inoculate each well of a 96-well microtiter plate filled with 180 μl of de novo minimal CDM. Only the inner wells of the plate were used for cultures, in order to minimize evaporation, and two controls were included, in which the supplement solution was replaced with water.
The plate was then incubated for 7 days at 35° C. in a Biotek Synergy H1 reader with constant shaking, and growth was automatically monitored every 10 minutes as OD650 nm.
The relative growth yield and growth rate for each supplement was then averaged over the three independent repeats, and the standard deviation was calculated.

Where [1] appears, read: Bordetella pertussis, 168 h, read-out: Relative yield Average, 1.33 mM in medium, max OD650 nm relative to water controls.
The mark [2] stands for this setting: Bordetella pertussis, read-out: Relative growth rate Average, 1.33 mM in medium, first generation, relative to water controls.
Setting [3] is: Bordetella pertussis, 168 h, read-out: Relative yield Average, 1 mg/L in medium, max OD650 nm relative to water controls.
The mark [4] stands for this setting: Bordetella pertussis, read-out: Relative growth rate Average, 1 mg/L in medium, first generation, relative to water controls.
Where [5] appears, read: Bordetella pertussis, 168 h, read-out: Relative yield Average, 2 mM in medium, max OD650 nm relative to water controls.
The mark [6] stands for this setting: Bordetella pertussis, 168 h, read-out: Relative yield Average, 20 mM in medium, max OD650 nm relative to water controls.
Setting [7] is: Bordetella pertussis, read-out: Relative growth rate Average, 2 mM in medium, first generation, relative to water controls.
Setting [8] is: 5 mM in medium, first generation, relative to water controls.
The mark [9] stands for this setting: 5 mM in medium, max OD650 nm relative to water controls.
The mark [10] stands for this setting: 50 mM in medium, first generation, relative to water controls.
Setting [11] is: 50 mM in medium, max OD650 nm relative to water controls.
[12] abbreviates: 2 mM in medium, first generation, relative to water controls.
The mark [13] stands for this setting: 2 mM in medium, max OD650 nm relative to water controls.
Where [14] appears, read: 20 mM in medium, first generation, relative to water controls.
[15] abbreviates: 20 mM in medium, max OD650 nm relative to water controls.
Where [16] appears, read: 1 mM in medium, first generation, relative to water controls.
Setting [17] is: 10 mM in medium, first generation, relative to water controls.

Structures can show the parent of a compound that is named as a salt. Where two headings read alike, the source gives them in different places. Where only a bound is given, the exact number is not on record here.

Regarding `N[C@@H](Cc1ccccc1)C(=O)O` [L-Phenylalanine], the activity at 1330 µM was below 95% under setting [1] and below 95% under setting [2].

On to `Nc1nc2nc[nH]c2c(=O)[nH]1` [Guanine], for which the activity at 0.1 µg/mL (Bordetella pertussis, 168 h, read-out: Relative yield Average, 0.1 mg/L in medium, max OD650 nm relative to water controls) was in the range of 95 to 105% and the activity at 0.1 µg/mL (Bordetella pertussis, read-out: Relative growth rate Average, 0.1 mg/L in medium, first generation, relative to water controls) lay in the range of 95 to 105%. The activity at 1 µg/mL runs as follows: under setting [3], 95 to 105%; under setting [4], 95 to 105%.

Consider `CC[C@H](C)[C@H](N)C(=O)O` [L-Isoleucine], for which the activity at 2000 µM under setting [5] is below 95% and the activity at 2000 µM under setting [7] is below 95%. Further, the activity at 20000 µM under setting [6] is below 95%. Also, where the note is “no concentration stated”, the “Effect on growth rate in comparison to a minimally identified medium” value is “negative effect”.

For the molecule `CC(=O)[O-].[Na+]` [Sodium acetate], the “Relative growth rate Average” value is listed as 101.45% under setting [8] and 71.40% under setting [10]. Also, the “Relative yield Average” value turned out to be 99.15% under setting [9] and 152.20% under setting [11].

For the molecule `CC(C)[C@H](N)C(=O)O` [L-Valine], the activity at 2000 µM by setting is: under setting [5], 95 to 105%; under setting [7], below 95%.

`NCC(=O)O` [Glycine]: the activity at 2000 µM was 95 to 105% under setting [5] and above 105% under setting [7]. For the same molecule, the activity at 20000 µM (Bordetella pertussis, read-out: Relative growth rate Average, 20 mM in medium, first generation, relative to water controls) is above 105%.

Consider `C[C@@H](O)[C@H](N)C(=O)O` [L-Threonine], for which the activity at 2000 µM was 95 to 105% under setting [5] and below 95% under setting [7]. Besides, under setting [6], the activity at 20000 µM is below 95%.

Regarding `O.O.[Na+].[Na+].[O]=[Mo](=[O])([O-])[O-]` [Na2MoO4•2H2O], the “Relative growth rate Average” value is, setting by setting: (0.94 mg/L in medium, first generation, relative to water controls) 86.76%; (9.4 mg/L in medium, first generation, relative to water controls) 91.79%. For the same molecule, the “Relative yield Average” value runs as follows: (0.94 mg/L in medium, max OD650 nm relative to water controls) 101.96%; (9.4 mg/L in medium, max OD650 nm relative to water controls) 105.65%.

Consider `NC(=O)C[C@H](N)C(=O)O` [L-Asparagine], for which the activity at 1330 µM by setting is: under setting [1], 95 to 105%; under setting [2], 95 to 105%. Moreover, the activity at 13300 µM is below 95% (Bordetella pertussis, 168 h, read-out: Relative yield Average, 13.3 mM in medium, max OD650 nm relative to water controls) and 95 to 105% (Bordetella pertussis, read-out: Relative growth rate Average, 13.3 mM in medium, first generation, relative to water controls).

Regarding `NC(=O)c1ccc[n+]([C@@H]2O[C@H](COP(=O)([O-])OP(=O)(O)OC[C@H]3O[C@@H](n4cnc5c(N)ncnc54)[C@H](O)[C@@H]3O)[C@@H](O)[C@H]2O)c1` [NAD], the “Relative growth rate Average” value by setting is: (10 mg/L in medium, first generation, relative to water controls) 100.14%; (100 mg/L in medium, first generation, relative to water controls) 97.38%. For the same molecule, the “Relative yield Average” value came out at 100.15% (10 mg/L in medium, max OD650 nm relative to water controls) and 104.61% (100 mg/L in medium, max OD650 nm relative to water controls).

With `Cc1ncc(C[n+]2csc(CCO)c2C)c(N)n1` [Thiamine HCl], the activity at 1 µg/mL by setting is: under setting [3], 95 to 105%; under setting [4], 95 to 105%. Besides, the activity at 10 µg/mL (Bordetella pertussis, 168 h, read-out: Relative yield Average, 10 mg/L in medium, max OD650 nm relative to water controls) is above 105% and the activity at 10 µg/mL (Bordetella pertussis, read-out: Relative growth rate Average, 10 mg/L in medium, first generation, relative to water controls) was above 105%.

As for `O.O.O.O.O.O.[Cl-].[Cl-].[Co+2]` [CoCl2•6H2O], the “Relative growth rate Average” value is, setting by setting: (0.42 mg/L in medium, first generation, relative to water controls) 93.44%; (4.2 mg/L in medium, first generation, relative to water controls) 46.12%. For the same molecule, the “Relative yield Average” value by setting is: (0.42 mg/L in medium, max OD650 nm relative to water controls) 103.04%; (4.2 mg/L in medium, max OD650 nm relative to water controls) 149.59%.

As to `CC(O)CC(=O)[O-].[Na+]` (racemic) [Sodium DL-beta-hydroxybutyrate], the “Relative growth rate Average” value runs as follows: under setting [12], 100.28%; under setting [14], 94.37%. The “Relative yield Average” value is, setting by setting: under setting [13], 96.73%; under setting [15], 145.46%.

Take `O=C(O)CCC(=O)O` [Succinic acid]: under setting [5], the activity at 2000 µM was below 95%.

In the case of `Nc1ccc(C(=O)O)cc1` [para-aminobenzoic acid], the activity at 0.2 µg/mL runs as follows: (Bordetella pertussis, 168 h, read-out: Relative yield Average, 0.2 mg/L in medium, max OD650 nm relative to water controls) 95 to 105%; (Bordetella pertussis, read-out: Relative growth rate Average, 0.2 mg/L in medium, first generation, relative to water controls) above 105%. Moreover, the activity at 2 µg/mL lay within 95 to 105% (Bordetella pertussis, 168 h, read-out: Relative yield Average, 2 mg/L in medium, max OD650 nm relative to water controls) and 95 to 105% (Bordetella pertussis, read-out: Relative growth rate Average, 2 mg/L in medium, first generation, relative to water controls).

In the case of `O=C([O-])/C=C/C(=O)[O-].[Na+].[Na+]` [Disodium Fumarate], the “Relative growth rate Average” value reads like this: under setting [12], 97.72%; under setting [14], 86.72%. The “Relative yield Average” value amounted to 107.14% under setting [13] and 171.26% under setting [15].

For the molecule `N[C@@H](Cc1c[nH]c2ccccc12)C(=O)O` [L-Tryptophane], the activity at 518 µM (Bordetella pertussis, 168 h, read-out: Relative yield Average, 0.518 mM in medium, max OD650 nm relative to water controls) was above 105% and the activity at 518 µM (Bordetella pertussis, read-out: Relative growth rate Average, 0.518 mM in medium, first generation, relative to water controls) lay in the range of 95 to 105%. In addition, for the setting “Bordetella pertussis, 168 h, read-out: Relative yield Average, 5.18 mM in medium, max OD650 nm relative to water controls”, the activity at 5180 µM was in the range of 95 to 105%.

Take `O=C(O)CC(O)(CC(=O)O)C(=O)O` [Citric acid monohydrate]: the activity at 2000 µM under setting [5] was below 95%.

For `O=P([O-])([O-])O.[Na+].[Na+]` [Na2HPO4], the “Relative growth rate Average” value under setting [16] was determined as 99.98% and the “Relative growth rate Average” value under setting [17] is on record as 101.26%.

Consider `N[C@@H](Cc1ccc(O)cc1)C(=O)O` [L-Tyrosine], for which the activity at 22.1 µM runs as follows: (Bordetella pertussis, 168 h, read-out: Relative yield Average, 0.0221 mM in medium, max OD650 nm relative to water controls) 95 to 105%; (Bordetella pertussis, read-out: Relative growth rate Average, 0.0221 mM in medium, first generation, relative to water controls) 95 to 105%. In addition, the activity at 221 µM is 95 to 105% (Bordetella pertussis, 168 h, read-out: Relative yield Average, 0.221 mM in medium, max OD650 nm relative to water controls) and below 95% (Bordetella pertussis, read-out: Relative growth rate Average, 0.221 mM in medium, first generation, relative to water controls).

Regarding `C[N+](C)(C)CCO.[Cl-]` [Choline chloride], the activity at 0.6 µg/mL was 95 to 105% (Bordetella pertussis, 168 h, read-out: Relative yield Average, 0.6 mg/L in medium, max OD650 nm relative to water controls) and 95 to 105% (Bordetella pertussis, read-out: Relative growth rate Average, 0.6 mg/L in medium, first generation, relative to water controls). The activity at 6 µg/mL by setting is: (Bordetella pertussis, 168 h, read-out: Relative yield Average, 6 mg/L in medium, max OD650 nm relative to water controls) 95 to 105%; (Bordetella pertussis, read-out: Relative growth rate Average, 6 mg/L in medium, first generation, relative to water controls) 95 to 105%.

`[I-].[K+]` [Potassium iodide]: the “Relative growth rate Average” value is, setting by setting: (0.47 mg/L in medium, first generation, relative to water controls) 94.69%; (4.7 mg/L in medium, first generation, relative to water controls) 99.91%. Also, the “Relative yield Average” value (0.47 mg/L in medium, max OD650 nm relative to water controls) is given as 101.89% and the “Relative yield Average” value (4.7 mg/L in medium, max OD650 nm relative to water controls) amounted to 104.26%.

With `O.O.O.O.O.O.[Cl-].[Cl-].[Mg+2]` [MgCl2•6H2O], the “Relative growth rate Average” value by setting is: under setting [16], 99.38%; under setting [17], 106.39%. The “Relative yield Average” value is, setting by setting: (1 mM in medium, max OD650 nm relative to water controls) 102.26%; (10 mM in medium, max OD650 nm relative to water controls) 222.99%.

For `C[C@H](O)C(=O)[O-].[Na+]` [Sodium L-Lactate], the “Relative growth rate Average” value runs as follows: under setting [8], 128.73%; under setting [10], 103.33%. Further, the “Relative yield Average” value was 100.70% under setting [9] and 192.99% under setting [11].

In the case of `O.O.O.O.O.O.O.O=S(=O)([O-])[O-].[Zn+2]` [ZnSO4•7H2O], the “Relative growth rate Average” value by setting is: (1.89 mg/L in medium, first generation, relative to water controls) 91.58%; (18.9 mg/L in medium, first generation, relative to water controls) 99.13%. The “Relative yield Average” value is given as 191.76% (1.89 mg/L in medium, max OD650 nm relative to water controls) and 163.55% (18.9 mg/L in medium, max OD650 nm relative to water controls).

These data come from patent publication US20160378909A1, “PROCESS FOR IDENTIFYING CULTURE CONDITIONS FOR A CELL OR ORGANISM” (GLAXOSMITHKLINE BIOLOGICALS SA, priority 2013, published 2016).
